Source: PMC6582486, “Stapled EGFR peptide reduces inflammatory breast cancer and inhibits additional HER-driven models of cancer” (Journal of Translational Medicine, 2019)
Where a SMILES comes first, the peptide text is derived from it. Bridges are numbered along the chain shown (N, C = ends). [ ]: non-standard residue; d: D form. R8 = C=CCCCCCC[C@@](C)(N)C(=O)O; S5 = C=CCCC[C@](C)(N)C(=O)O

How the values were obtained:
SUM149-generated tumors = test: Inflammatory breast cancer SUM149 mouse model; format: in vivo, SCID mice
Protocol: 26 female SCID mice were injected with 0.1 mL of a cell solution containing 3.84 × 10^6 SUM149 cells resuspended in Trevigen and sterile saline at site L4. Mice were incubated for 35 days to allow tumor growth prior to injection of SAH5-EJ1, and randomized into 3 groups, N = 8 mice/group. Injections of 5 µg/g or 0.5 µg/g in 0.1 mL volumes of SAH5-EJ1 were administered via tail vein every 3 days for 31 days until the administration route changed to intraperitoneal injections through the conclusion of the study. Control injections of equal volumes of sterile water were also performed. All animals were maintained as outlined by University of Arizona Institutional Animal Care and Use Committee (IACUC) by the Experimental Mouse Shared Resource (EMSR).
Fig. 4 SAH5-EJ1 effectively treats models of basal and inflammatory breast cancers while increasing survival. a Changes in tumor burden in breast cancer PDX mouse model TM01278 with various concentrations of intravenous SAH5-EJ1. Control represents water as a vehicle control. *p < 0.05 (Control vs 1 µg/g); **p < 0.01 (Control vs 1 µg/g and vs 10 µg/g). N = 6 for each condition. b Kaplan–Meier curve of breast PDX mouse model treated with control (blue) or either 1 or 10 µg/g SAH5-EJ1 (green and red, respectively) (red asterisks indicate time point at which mice could no longer receive injections due to site toxicity). Data shown represent mean. N = 6 for all groups. c Cell viability assay performed in SUM149 cells over 3 days comparing treatment with Sapitinib (blue) to SAH5-EJ1 (red) and SAH5-CP (grey). Solid lines represent 24 h; dashed lines represent 72 h. Data shown represent mean ± percent difference of assays performed in triplicate. d Kaplan–Meier curve of inflammatory breast cancer SUM149-injected mouse model treated with injected control (water) (blue) or either 0.5 or 5 µg/g SAH5-EJ1 (green and red, respectively). Data shown represent mean. N = 8 for all groups. e Changes in tumor burden in SUM149-generated tumors with various doses of SAH5-EJ1. Control represents water (blue). […]

[1] = test system: grade 3 invasive ductal breast carcinoma PDX TM01278; test: Breast cancer PDX mouse model TM01278; format: in vivo
Excerpt: The following PDX mouse models were generated by Jackson Labs (Sacramento, CA): Breast TM01278; Grade 3 invasive ductal carcinoma, primary malignancy; EGFR inactivating R521K mutation; ERBB3 G1288A mutation in kinase domain with unknown effects on activity; increased EGFR/ERBB2/ERBB3. Lung TM00784; Grade 3 lung adenocarcinoma, primary malignancy; EGFR activating L858R mutation; increased EGFR, decreased ERBB2/ERBB3/ERBB4. All animals were maintained as outlined by University of Arizona Institutional Animal Care and Use Committee (IACUC) by the Experimental Mouse Shared Resource (EMSR).
Fig. 4 SAH5-EJ1 effectively treats models of basal and inflammatory breast cancers while increasing survival. a Changes in tumor burden in breast cancer PDX mouse model TM01278 with various concentrations of intravenous SAH5-EJ1. Control represents water as a vehicle control. *p < 0.05 (Control vs 1 µg/g); **p < 0.01 (Control vs 1 µg/g and vs 10 µg/g). N = 6 for each condition. b Kaplan–Meier curve of breast PDX mouse model treated with control (blue) or either 1 or 10 µg/g SAH5-EJ1 (green and red, respectively) (red asterisks indicate time point at which mice could no longer receive injections due to site toxicity). Data shown represent mean. N = 6 for all groups. c Cell viability assay performed in SUM149 cells over 3 days comparing treatment with Sapitinib (blue) to SAH5-EJ1 (red) and SAH5-CP (grey). […]

`CC[C@H](C)[C@H](NC(=O)[C@H](Cc1c[nH]cn1)NC(=O)[C@H](CCCNC(=N)N)NC(=O)[C@H](CCCNC(=N)N)NC(=O)[C@H](CCCNC(=N)N)NC(=O)[C@H](CCSC)NC(=O)[C@H](Cc1ccccc1)NC(=O)[C@H](C)NC(=O)[C@H](CCCNC(=N)N)NC(=O)[C@H](C)NC(=O)[C@H](CCC(N)=O)NC(=O)[C@H](CCCNC(=N)N)NC(=O)[C@H](C)NC(=O)[C@H](C)NC(=O)[C@H](C)NC(=O)[C@H](CCCNC(=N)N)NC(=O)[C@H](C)NC(=O)[C@@H](N)Cc1ccc(O)cc1)C(=O)N[C@H](C(=O)N[C@@H](CCCNC(=N)N)C(=O)N[C@@H](CCCCN)C(=O)N[C@@H](CCCNC(=N)N)C(=O)N[C@]1(C)CCCCCCC=CCCC[C@@](C)(C(=O)N[C@@H](CCCNC(=N)N)C(=O)N[C@@H](CCC(=O)O)C(N)=O)NC(=O)[C@H](CCC(N)=O)NC(=O)[C@H](CC(C)C)NC(=O)[C@H](CC(C)C)NC(=O)[C@H](CCCNC(=N)N)NC(=O)[C@H](CCCNC(=N)N)NC(=O)[C@H](CC(C)C)NC1=O)C(C)C` [SAH5-EJ1] (H-YARAAARQARAFMRRRHIVRKR[R8]LRRLLQ[S5]RE-NH2; staple 23-30) was tested, and the “time of treatment until all animals showed no residual tumor burden” value (SUM149-generated tumors; 0.5 or 5 µg/g every 3 days, IV then IP) was ≤ 55 days, the “treated mice displaying tumor regrowth” value (SUM149-generated tumors; 0.5 or 5 µg/g groups together) was 9/16 and the “treated mice remaining at the end of the study” value (SUM149-generated tumors; 0.5 or 5 µg/g, treatment up to 203 days) was “more than 40%”. For the same compound, the increase in survival ([1]; 1 µg/g IV vs control, N = 6) was 2.5 fold and the “time on study at which all remaining mice were sacrificed due to toxicity at the injection site” value ([1]; 10 µg/g IV) was 41 days.
